# Results taken from US10358436B2, “Kinase inhibitors and method of treating cancer” (University Health Network, priority 2010, dated 2019).
# pIC50: −log10 of the molar value. Where a name gives a salt, the structure may show the parent alone.
# Target: Aurora A (Homo sapiens (Human), UniProt O14965)
# Test: Aurora A inhibition assay (Z-Lyte)
# Format: biochemical
# Chain of Aurora A (O14965 whole entry): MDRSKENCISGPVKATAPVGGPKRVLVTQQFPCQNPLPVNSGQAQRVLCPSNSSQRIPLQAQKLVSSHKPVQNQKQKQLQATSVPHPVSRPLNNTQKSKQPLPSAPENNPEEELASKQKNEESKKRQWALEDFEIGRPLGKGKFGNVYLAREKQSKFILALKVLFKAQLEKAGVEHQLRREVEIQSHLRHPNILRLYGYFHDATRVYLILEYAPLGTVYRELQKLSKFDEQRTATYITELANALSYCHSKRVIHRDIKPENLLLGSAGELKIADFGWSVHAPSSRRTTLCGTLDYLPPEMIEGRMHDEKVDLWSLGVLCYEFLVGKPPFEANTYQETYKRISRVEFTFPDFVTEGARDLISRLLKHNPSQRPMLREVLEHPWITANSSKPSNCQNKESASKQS
Compound,inhibition at 1 µM [%],pIC50
"COc1ccc2c(c1)[C@]1(C[C@H]1c1ccc3c(-c4ccc(OCCN5CCOCC5)cc4)n[nH]c3c1)C(=O)N2 [Example A68, (1R,2S)-5′-methoxy-2-(3-(4-(2-morpholinoethoxy)phenyl)-1H-indazol-6-yl)spiro[cyclopropane-1,3′-indolin]-2′-one 2,2,2-trifluoroacetate salt]",< 50,–
"CN1CCN(c2ccc(-c3n[nH]c4cc([C@@H]5C[C@@]56C(=O)Nc5ccc(F)cc56)ccc34)cn2)CC1 (relative stereo) [Example A210, 1R*,2S*1-5′-fluoro-2-(3-(6-(4-methylpiperazine-1-yl)pyridine-3-yl)-1H-indazol-6-yl)-spiro[cyclopropane-1,3′-indolin]-2′-one]",> 50,–
"O=C1Nc2ccccc2[C@]12C[C@H]2c1ccc2c(/C=C/c3ccc(CN4CCCCC4)cc3)n[nH]c2c1 (relative stereo) [Example A57, (1R*,2S*)-(E)-2-(3-(4-(piperidin-1-ylmethyl)styryl)-1H-indazol-6-yl)spiro[cyclopropane-1,3′-indolin]-2′-one 2,2,2-trifluoroacetate]",> 50,–
"O=C1Nc2ccccc2[C@]12C[C@H]2c1ccc2c(/C=C/c3ccc(OCCN4CCOCC4)cc3)n[nH]c2c1 [Example A204, (1R,2S)-(E)-2-(3-(4-(2-morpholinoethoxy)styryl)-1H-indazol-6-yl)spiro[cyclopropane-1,3′-indolin]-2′-one 2,2,2-trifluoroacetate]",> 50,–
"COc1ccc2c(c1)[C@@]1(C[C@@H]1c1ccc3c(-c4ccc(N5CCN(C)CC5)nc4)n[nH]c3c1)C(=O)N2 [Example A15, (1S,2R)-5′-methoxy-2-(3-(6-(4-methylpiperazin-1-yl)pyridin-3-yl)-1H-indazol-6-yl)spiro[cyclopropane-1,3′-indolin]-2′-one]",< 50,–
"CN1CCC(Cc2ccc(/C=C/c3n[nH]c4cc([C@@H]5C[C@@]56C(=O)Nc5ccccc56)ccc34)cc2)CC1 [Example A81, (1R,2S)-(E)-2-(3-(4-((l-methylpiperidin-4-yl)methyl)styryl)-1H-indazol-6-yl)spiro[cyclopropane-1,3′-indolin]-2′-one 2,2,2-trifluoroacetate salt]",> 50,–
"CN1CCc2cc(-c3n[nH]c4cc([C@@H]5C[C@@]56C(=O)Nc5ccccc56)ccc34)ccc2C1 [Example A76, (1R,2S)-2-(3-(2-methyl-1,2,3,4-tetrahydroisoquinolin-6-yl)-1H-indazol-6-yl)spiro[cyclopropane-1,3′-indolin]-2′-one 2,2,2-trifluoroacetate salt]",< 50,–
"CN1CCN(c2ccc(-c3n[nH]c4cc([C@@H]5C[C@@]56C(=O)Nc5ccc(Br)cc56)ccc34)cn2)CC1 (relative stereo) [Example A19, (1R*,2S*)-5′-bromo-2-(3-(6-(4-methylpiperazin-1-yl)pyridin-3-yl)-1H-indazol-6-yl)spiro[cyclopropane-1,3′-indolin]-2′-one]",< 50,–
"COc1ccc2c(c1)[C@]1(C[C@H]1c1ccc3c(/C=C/c4cc(F)c(CN(C)C)c(F)c4)n[nH]c3c1)C(=O)N2 [Example A216, (1R,2S)-(E)-2-(3-(4-((dimethylamino)methyl)-3,5-difluorostyryl)-1H-indazol-6-yl)-5′-methoxyspiro[cyclopropane-1,3′-indolin]-2′-one 2,2,2-trifluoroacetate]",> 50,–
"COc1ccc2c(c1)[C@]1(C[C@H]1c1ccc3c(-c4ccc(CN(C)C)cc4)n[nH]c3c1)C(=O)N2 (relative stereo) [Example A166, (1R*,2S*)-2-(3-(4-((dimethylamino)methyl)phenyl)-1H-indazol-6-yl)-5′-methoxyspiro[cyclopropane-1,3′-indolin]-2′-one 2,2,2-trifluoroacetate]",< 50,–
"CCN1CCN(c2ccc(/C=C/c3n[nH]c4cc([C@@H]5C[C@@]56C(=O)Nc5ccc(OC)cc56)ccc34)cc2)CC1 [Example A187, (1R,2S)-(E)-2-(3-(4-(4-ethylpiperazin-1-yl)styryl)-1H-indazol-6-yl)-5′-methoxyspiro[cyclopropane-1,3′-indolin]-2′-one 2,2,2-trifluoroacetate]",> 50,–
"CN(C)Cc1ccc(/C=C/c2n[nH]c3cc([C@@H]4C[C@@]45C(=O)Nc4ccc(F)cc45)ccc23)cc1 (relative stereo) [Example A208, (1R*,2S*)-(E)-2-(3-(4-((dimethylamino)methyl)styryl)-1H-indazol-6-yl)-5′-flurorospiro[cyclopropane-1,3′-indolin]-2′-one 2,2,2-trifluoroacetate]",> 50,–
"CCc1ccc2c(c1)[C@]1(C[C@H]1c1ccc3c(-c4cccc(CN5CCOCC5)c4)n[nH]c3c1)C(=O)N2 (relative stereo) [Example A141, (1R*,2S*)-5′-ethyl-2-(3-(3-(morpholinomethyl)phenyl)-1H-indazol-6-yl)spiro[cyclopropane-1,3′-indolin]-2′-one 2,2,2-trifluoroacetate]",< 50,–
"COc1ccc2c(c1)[C@]1(C[C@H]1c1ccc3c(/C=C/c4cc(F)c(CN(C)C)c(F)c4)n[nH]c3c1)C(=O)N2 (relative stereo) [Example A215, (1R*,2S*)-(E)-2-(3-(4-((dimethylamino)methyl)-3,5-difluorostyryl)-1H-indazol-6-yl)-5′-methoxyspiro[cyclopropane-1,3′-indolin]-2′-one 2,2,2-trifluoro acetate]",–,> 7.00
"CN1CCN(c2ccc(/C=C/c3n[nH]c4cc([C@@H]5C[C@@]56C(=O)N(C)c5ccccc56)ccc34)cn2)CC1 [Example A110, (1R,2S)-1′-methyl-2-(3-((E)-2-(6-(4-methylpiperazin-1-yl)pyridin-3-yl)vinyl)-1H-indazol-6-yl)spiro[cyclopropane-1,3′-indolin]-2′-one bis(2,2,2-trifluoroacetate)]",> 50,–
"CN1CCN(c2ccc(-c3n[nH]c4cc([C@@H]5C[C@@]56C(=O)Nc5ccc(OC(F)F)cc56)ccc34)cn2)CC1 (relative stereo) [Example A209, 1R*,2S*1-5′-(difluoromethoxy)-2-(3-(6-(4-methylpiperazine-1-yl)pyridine-3-yl)-1H-indazol-6-yl) spiro[cyclopropane-1,3′-indolin]-2′-one 2,2,2-trifluoroacetate]",< 50,–
"CN1C(=O)[C@@]2(C[C@H]2c2ccc3c(/C=C/c4ccc(N5CCNCC5)cc4)n[nH]c3c2)c2ccccc21 [Example A90, (1R,2S)-(E)-1′-methyl-2-(3-(4-(piperazin-1-yl)styryl)-1H-indazol-6-yl)spiro[cyclopropane-1,3′-indolin]-2′-one hydrochloride]",> 50,–
"COc1ccc2c(c1)[C@]1(C[C@H]1c1ccc3c(/C=C/c4ccc(CC5CCN(C)CC5)cc4)n[nH]c3c1)C(=O)N2 [Example A82, (1R,2S)-(E)-5′-methoxy-2-(3-(4-((l-methylpiperidin-4-yl)methyl)styryl)-1H-indazol-6-yl)spiro[cyclopropane-1,3′-indolin]-2′-one 2,2,2-trifluoroacetate salt]",> 50,–
"CC(C)CCN1C(=O)[C@@]2(C[C@H]2c2ccc3c(/C=C/c4ccc(CN(C)C)cc4)n[nH]c3c2)c2ccccc21 (relative stereo) [Example A176, (1R*,2S*)-(E)-2-(3-(4-((dimethylamino)methyl)styryl)-1H-indazol-6-yl)-1′-isopentylspiro[cyclopropane-1,3′-indolin]-2′-one]",> 50,–
"COc1ccc2c(c1)[C@]1(C[C@H]1c1ccc3c(-c4ccc(CO)cc4)n[nH]c3c1)C(=O)N2 (relative stereo) [Example A45, (1R*,2S*)-2-(3-(4-(hydroxymethyl)phenyl)-1H-indazol-6-yl)-5′-methoxyspiro[cyclopropane-1,3′-indolin]-2′-one 2,2,2-trifluoroacetate]",< 50,–
"COc1ccc2c(c1)[C@]1(C[C@H]1c1ccc3c(/C=C/c4ccc(N5CCN(C)CC5)cc4)n[nH]c3c1)C(=O)N2 (relative stereo) [Example A174, (1R*,2S*)-(E)-5′-methoxy-2-(3-(4-(4-methylpiperazin-1-yl)styryl)-1H-indazol-6-yl)spiro[cyclopropane-1,3′-indolin]-2′-one 2,2,2-trifluoroacetate]",> 50,–
"COc1ccc2c(c1)[C@]1(C[C@H]1c1ccc3c(-c4ccc(N5CCOCC5)nc4)n[nH]c3c1)C(=O)N2 (relative stereo) [Example A20, (1R*,2S*)*-5′-Methoxy-2-(3-(6-morpholinopyridin-3-yl)-1H-indazol-6-yl)spiro[cyclopropane-1,3′-indolin]-2′-one]",< 50,–
"COc1ccc2c(c1)[C@]1(CC1c1ccc3c(/C=C/c4ccc(CN5CCCCC5)nc4)n[nH]c3c1)C(=O)N2 (mixture of isomers) [Example A62, (1R,2S)-(E)-5′-methoxy-2-(3-((E)-2-(6-(piperidin-1-ylmethyl)pyridin-3-yl)vinyl)-1H-indazol-6-yl)spiro[cyclopropane-1,3′-indolin]-2′-one 2,2,2-trifluoroacetate salt]",> 50,–
"COc1ccc2c(c1)[C@]1(C[C@H]1c1ccc3c(/C=C/c4ccc(CN5CCCCC5)cc4)n[nH]c3c1)C(=O)N2 [Example A59, (1R,2S)-(E)-5′-methoxy-2-(3-(4-(piperidin-1-ylmethyl)styryl)-1H-indazol-6-yl)spiro[cyclopropane-1,3′-indolin]-2′-one 2,2,2-trifluoroacetate salt]",> 50,–
"COc1ccc2c(c1)C1(CC1c1ccc3c(I)n[nH]c3c1)C(=O)N2 (single isomer, unassigned) [Example A6, (1R*,2S*)- and (1R*,2R*)-2-(3-iodo-1H-indazol-6-yl)-5′-methoxyspiro-[cyclopropane-1,3′-indolin]-2′-one]",< 50,–
"COc1ccc2c(c1)[C@]1(C[C@H]1c1ccc3c(-c4ccc(N5CCNCC5)cc4)n[nH]c3c1)C(=O)N2C [Example A101, (1R,2S)-5′-methoxy-1′-methyl-2-(3-(4-(piperazin-1-yl)phenyl)-1H-indazol-6-yl)spiro[cyclopropane-1,3′-indolin]-2′-one 2,2,2-trifluoroacetate]",< 50,–
